This assay concerns the target T1, Prostaglandin G/H synthase 2 (Mus musculus, UniProt Q05769).
T1 sequence (Q05769 whole entry): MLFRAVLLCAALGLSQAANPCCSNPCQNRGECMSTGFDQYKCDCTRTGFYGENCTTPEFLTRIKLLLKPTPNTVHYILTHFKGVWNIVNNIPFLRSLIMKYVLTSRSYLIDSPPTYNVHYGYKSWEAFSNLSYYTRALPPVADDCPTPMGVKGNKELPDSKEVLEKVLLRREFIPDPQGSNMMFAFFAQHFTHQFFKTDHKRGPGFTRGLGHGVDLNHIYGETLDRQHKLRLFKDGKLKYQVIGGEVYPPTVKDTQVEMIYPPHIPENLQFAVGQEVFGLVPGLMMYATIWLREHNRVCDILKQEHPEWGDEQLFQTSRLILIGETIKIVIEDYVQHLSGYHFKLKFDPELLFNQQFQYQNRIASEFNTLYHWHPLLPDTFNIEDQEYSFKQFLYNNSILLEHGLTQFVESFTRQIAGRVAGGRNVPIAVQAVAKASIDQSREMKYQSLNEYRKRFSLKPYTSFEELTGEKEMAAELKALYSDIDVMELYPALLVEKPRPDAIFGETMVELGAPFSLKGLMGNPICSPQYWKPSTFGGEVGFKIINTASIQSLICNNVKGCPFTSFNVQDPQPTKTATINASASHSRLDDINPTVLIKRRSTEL
The assay can be described thus: Inhibition of LPS-induced COX2 activity in C57BL/6J mouse peritoneal macrophages by RIA.

Each structure is given as a SMILES string.

As usually defined, the IC50 is the concentration at which inhibition is half-maximal. Compound `COc1ccc(/C=C/C(=O)O[C@@H]2[C@@H](O)[C@H](O[C@@H]3[C@@H](O)[C@H](O[C@@H]4CO[C@@H](O[C@@H]5[C@@H](O)[C@H](C)O[C@@H](O[C@H]6[C@H](O[C@H]7CC[C@]8(C)[C@H]9CC=C%10[C@@H]%11CC(C)(C)CC[C@]%11(C(=O)O[C@@H]%11O[C@H](CO[C@@H]%12O[C@H](CO)[C@@H](O[C@@H]%13O[C@@H](C)[C@H](O)[C@@H](O)[C@H]%13O)[C@H](O)[C@H]%12O)[C@@H](O)[C@H](O)[C@H]%11O)CC[C@@]%10(C)[C@]9(C)CC[C@H]8C7(C)C)OC[C@H](O)[C@@H]6O)[C@@H]5O)[C@H](O)[C@@H]4O)O[C@H](CO)[C@H]3O)O[C@H](CO[C@@H]3O[C@@H](C)[C@H](O)[C@@H](O)[C@H]3O)[C@H]2O)cc1O` [CLEMATOMANDSHURICA SAPONIN A] yielded a half-maximal inhibitory concentration (IC50) of 2.66 µM. As for `COc1cc(/C=C/C(=O)O[C@H]2[C@H](O[C@@H]3[C@@H](O)[C@H](O[C@@H]4CO[C@@H](O[C@@H]5[C@@H](O)[C@H](C)O[C@@H](O[C@H]6[C@H](O[C@H]7CC[C@]8(C)[C@H]9CC=C%10[C@@H]%11CC(C)(C)CC[C@]%11(C(=O)O[C@@H]%11O[C@H](CO[C@@H]%12O[C@H](CO)[C@@H](O[C@@H]%13O[C@@H](C)[C@H](O)[C@@H](O)[C@H]%13O)[C@H](O)[C@H]%12O)[C@@H](O)[C@H](O)[C@H]%11O)CC[C@@]%10(C)[C@]9(C)CC[C@H]8C7(C)C)OC[C@H](O)[C@@H]6O)[C@@H]5O)[C@H](O)[C@@H]4O)O[C@H](CO)[C@H]3O)O[C@H](CO[C@@H]3O[C@@H](C)[C@H](O)[C@@H](O)[C@H]3O)[C@@H](O)[C@@H]2O)ccc1O` [CLEMATOMANDSHURICA SAPONIN B], the figure is 2.58 µM.

These data come from ChEMBL document CHEMBL1158105, “Triterpene saponins from clematis mandshurica” (J Nat Prod, 2006).
